Measured values published in patent US12024506B2, “Compounds” (Oxford University Innovation Limited, priority 2018, dated 2024).

Target: T1, GST-human KRas166 (G12V) GPPNHP (Homo sapiens, UniProt P01116, G12V)
T1 construct: made in house; host or cells: E. coli C41(DE3)
Assay: KRas small-molecule screening by SPR (Biacore T200)
Assay type: binding
Settings: compound 100 uM, 5% DMSO buffer; immobilised GST-KRas166 (G12V) GPPNHP
Protocol: For SPR assays pGEX-KRAS(G12V) plasmid was transformed into E. coli C41(DE3). Bacterial cells were cultured at 37° C. to an OD600 of 0.6 and induced with IPTG (final 0.1 mM) at 18° C. over night. The GST fusion proteins were extracted from bacteria pellets after cell disruption in 140 mM NaCl, 2.7 mM KCl, 10 mM NaH2PO4, 1.8 mM KH2PO4, 1 mM EDTA, 2 mM MgCl2 pH 7.4 and purified by glutathione-sepharose column chromatography (GE Healthcare), eluting with 50 mM Tris-HCl pH8.0, 10 mM reduced glutathione, 1 mM DTT, 2 mM MgCl2. The eluted proteins were dialysed against 50 mM Tris-HCl pH8.0, 1 mM DTT, 2 mM MgCl2 and concentrated to 10 mg/ml using a Biomax-30 ULTRAFREE-15 centrifugal filter device (Millipore). Purified KRAS protein was loaded with GPPNHP as described elsewhere (Pacold et al., 2000). Loaded protein was then purified by gel filtration on a HiLoad Superdex-75 HR column (GE Healthcare) in 1×PBS pH7.4, 5 mM MgCl2 and concentrated for storage.
Protocol for KRas Small-Molecule Screening and Affinity Measurements by SPR
To a previously immobilized CM5 chip (GE Healthcare BR-1005-30) with anti GST antibody via amine coupling method, GST in channel 1 and GST-human KRas166 (G12V) GPPNHP in channel 2 were immobilised. GST was immobilised between 2,000 and 5,000 Response units. KRAS166 (G12V) was immobilized between 10,000 to 15,000 Response Units.
In a 96 well plate, compounds were diluted in […], 5 mM MgCl2 and 5% DMSO Buffer to a final concentration of 100 uM. DCAl was used as positive control. Experiment also included a solvent correction curve for 5% DMSO. Screening and evaluation of the protein immobilization and the compounds screening was done accordingly to the BIACORE T200 control and evaluation software.
Calculations for how many response units are required for a 1:1 ratio of compound/protein interaction are shown below. • Protein immobilisation: 10,000 RU; average fragment 300 Da in size. • Rmax=(MWA/MWL)×RL×SM • MWA is the molecular weight of the analyte in Da • MWL is the molecular weight of the ligand in Da • RL is the immobilization level in RU • SM is the molar stoichiometry (assume 1:1) • Rmax=300/47,500×10,000×1 • Rmax=63 RU. Cell Viability Assay protocols Assay 1

| SMILES | SPR Response Units [Response Units] |
| --- | --- |
| COc1nc(-c2cccc3c2OCCO3)ccc1NC1CCN(C(C)=O)CC1 [Example 99, 1-{4-[6-(2,3-Dihydro-benzo[1,4]dioxin-5-yl)-2-methoxy-pyridin-3-ylamino]-piperidin-1-yl}-ethanone] | 33 |
| COc1cccc(-c2cccc3c2OC(CNCC2CCN(C(=O)C4CCOCC4)CC2)CO3)n1 (stereo not drawn) [Example 30, [4-({[8-(6-Methoxy-pyridin-2-yl)-2,3-dihydro-benzo[1,4]dioxin-2-ylmethyl]-amino}-methyl)-piperidin-1-yl]-(tetrahydro-pyran-4-yl)-methanone] | 42 |
| CN(C)Cc1cccc(Nc2ccc(-c3cccc4c3OCCO4)nc2)c1 [Example 59, [6-(2,3-Dihydro-benzo[1,4]dioxin-5-yl)-pyridin-3-yl]-(3-dimethylaminomethyl-phenyl)-amine] | 79 |
| COc1cc(N)cc(-c2cccc3c2O[C@H](CNC(=O)c2ccc(CN4CCN(C)CC4)o2)CO3)n1 [Example 114, 5-(4-Methyl-piperazin-1-ylmethyl)-furan-2-carboxylic acid [(R)-8-(4-amino-6-methoxy-pyridin-2-yl)-2,3-dihydro-benzo[1,4]dioxin-2-ylmethyl]-amide] | 23 |
| COc1nc(-c2cccc3c2OC(CNC(=O)C2CCOCC2)CO3)ccc1Nc1ccc(C(=O)NCCO)cc1 (stereo not drawn) [Example 89, Tetrahydro-pyran-4-carboxylic acid (8-{5-[4-(2-hydroxy-ethylcarbamoyl)-phenylamino]-6-methoxy-pyridin-2-yl}-2,3-dihydro-benzo[1,4]dioxin-2-ylmethyl)-amide] | 132 |
| CN(C)CCOc1ccc(C(=O)NCC2COc3cccc(-c4cc(N5CCOCC5)ccn4)c3O2)cc1 (stereo not drawn) [Example 102, 4-(2-Dimethylamino-ethoxy)-N-[8-(4-morpholin-4-yl-pyridin-2-yl)-2,3-dihydro-benzo[1,4]dioxin-2-ylmethyl]-benzamide] | 126 |
| COc1cc(NC(=O)N[C@@H]2CC[C@H](N)C2)cc(-c2cccc3c2OCCO3)n1 [Example 136, 1-((1R,3S)-3-Amino-cyclopentyl)-3-[2-(2,3-dihydro-benzo[1,4]dioxin-5-yl)-6-methoxy-pyridin-4-yl]-urea] | 75 |
| O=C(NCC1COc2cccc(-c3ccc(OCCN4CCOCC4)cn3)c2O1)C1CCOCC1 (stereo not drawn) [Example 111, Tetrahydro-pyran-4-carboxylic acid {8-[5-(2-morpholin-4-yl-ethoxy)-pyridin-2-yl]-2,3-dihydro-benzo[1,4]dioxin-2-ylnethyl}-amide] | 29 |
| CN(C)CCOc1ccc(C(=O)NCC2COc3cccc(-c4cccc(=O)[nH]4)c3O2)cc1 (stereo not drawn) [Example 53, 4-(2-dimethylamino-ethoxy)-N-[8-(6-oxo-1,6-dihydro-pyridin-2-yl)-2,3-dihydro-benzo[1,4]dioxin-2-ylmethyl]-benzamide] | 52 |
| COc1cc(NC(=O)[C@@H]2CNCCO2)cc(-c2cccc3c2OCCO3)n1 [Example 20, (S)-Morpholine-2-carboxylic acid [2-(2,3-dihydro-benzo[1,4]dioxin-5-yl)-6-methoxy-pyridin-4-yl]-amide] | 80 |
| COc1cccc(-c2cccc3c2O[C@H](CNC(=O)c2ccc(CN4CCN(C)CC4)o2)CO3)n1 [Example 51, 5-(4-Methyl-piperazin-1-ylmethyl)-furan-2-carboxylic acid [(R)-8-(6-methoxy-pyridin-2-yl)-2,3-dihydro-benzo[1,4]dioxin-2-ylmethyl]-amide] | 32 |
| COc1cccc(-c2cccc3c2OC(CN2C(=O)NC(C)(C)C2=O)CO3)n1 (stereo not drawn) [Example 35, 3-[8-(6-Methoxy-pyridin-2-yl)-2,3-dihydro-benzo[1,4]dioxin-2-ylmethyl]-5,5-dimethyl-imidazolidine-2,4-dione] | 33 |
| COc1cc(NC(=O)N[C@@H]2CC[C@H](N)C2)cc(-c2cccc3c2OC(CNC(=O)C2CCOCC2)CO3)n1 (stereo partly drawn) [Example 135] | 57 |
| COc1nc(-c2cccc3c2OC(CNC(=O)C2CCOCC2)CO3)ccc1NC(=O)N[C@H]1CC[C@@H](N)C1 (stereo partly drawn) [Example 141, tetrahydro-pyran-4-carboxylic acid (8-{5-[3-((1S,3R)-3-amino-cyclopentyl)-ureido]-6-methoxy-pyridin-2-yl}-2,3-dihydro-benzo[1,4]dioxin-2-ylmethyl)-amide] | 80 |
| CN1CCN(Cc2ccc(C(=O)NCC3COc4cccc(-c5ccc(NCC6CCOCC6)cn5)c4O3)o2)CC1 (stereo not drawn) [Example 83, 5-(4-Methyl-piperazin-1-ylmethyl)-furan-2-carboxylic acid (8-{5-[(tetrahydro-pyran-4-ylmethyl)-amino]-pyridin-2-yl}-2,3-dihydro-benzo[1,4]dioxin-2-ylmethyl)-amide] | 16 |
| CN1CCN(Cc2ccc(C(=O)NCC3COc4cccc(-c5ccc(OCCN6CCOCC6)cn5)c4O3)o2)CC1 (stereo not drawn) [Example 107, 5-(4-methyl-piperazin-1-ylmethyl)-furan-2-carboxylic acid {8-[5-(2-morpholin-4-yl-ethoxy)-pyridin-2-yl]-2,3-dihydro-benzo[1,4]dioxin-2-ylmethyl}-amide] | 9 |
| COc1cccc(-c2cccc3c2O[C@@H](CNC(=O)c2ccc(CN4CCN(C)CC4)o2)CO3)n1 [Example 44, 5-(4-Methyl-piperazin-1-ylmethyl)-furan-2-carboxylic acid [(S)-8-(6-methoxy-pyridin-2-yl)-2,3-dihydro-benzo[1,4]dioxin-2-ylmethyl]-amide] | 42 |
| COc1cc(NC(=O)[C@@H]2CC[C@H](N)C2)cc(-c2cccc3c2OCCO3)n1 [Example 133, (1R,3S)-3-Amino-cyclopentanecarboxylic acid[2-(2,3-dihydro-benzo[1,4]dioxin-5-yl)-6-methoxy-pyridin-4-yl]-amide] | 96 |
| COc1cccc(-c2cccc3c2OCCO3)n1 [Example 1, 2-(2,3-Dihydro-benzo[1,4]dioxin-5-yl)-6-methoxy-pyridine] | 10 |
| CN1CCN(Cc2ccc(C(=O)NCC3COc4cccc(-c5ccn[nH]5)c4O3)o2)CC1 (stereo not drawn) [Example 42, 5-(4-Methyl-piperazin-1-ylmethyl)-furan-2-carboxylic acid [8-(2H-pyrazol-3-yl)-2,3-dihydro-benzo[1,4]dioxin-2-ylmethyl]-amide] | 62 |
| COc1nc(-c2cccc3c2OCCO3)ccc1Nc1ccc(C(=O)NCc2cc[nH]c(=O)c2)cc1 [Example 161] | 16 |
| c1ccc(CN2CCN(c3cccc4c3OCCO4)CC2)cc1 [Example 71, 1-Benzyl-4-(2,3-dihydro-benzo[1,4]dioxin-5-yl)-piperazine] | 14 |
| CN(C)Cc1cccc(Nc2ccc(-c3cccc4c3OCCO4)nn2)c1 [Example 67a, [6-(2,3-Dihydro-benzo[1,4]dioxin-5-yl)-pyridazin-3-yl]-(3-dimethylaminomethyl-phenyl)-amine] | 31 |
| COc1cc(N)cc(-c2cccc3c2OCCO3)n1 [Example 3, 2-(2,3-Dihydro-benzo[1,4]dioxin-5-yl)-6-methoxy-pyridin-4-ylamine] | 16 |
| COc1cccc(-c2cccc3c2OC(CN2C(=O)NC4(CCN(C)CC4)C2=O)CO3)n1 (stereo not drawn) [Example 34, 3-[8-(6-Methoxy-pyridin-2-yl)-2,3-dihydro-benzo[1,4]dioxin-2-ylmethyl]-8-methyl-1,3,8-triaza-spiro[4.5]decane-2,4-dione] | 37 |
| COc1nc(-c2cccc3c2OCCO3)ccc1NC1CCN(C)C1 (stereo not drawn) [Example 86, [6-(2,3-Dihydro-benzo[1,4]dioxin-5-yl)-2-methoxy-pyridin-3-yl]-(1-methyl-pyrrolidin-3-yl)-amine] | 17 |
| COc1nc(-c2cccc3c2OC(CNC(=O)C2CCOCC2)CO3)ccc1Nc1cccc(CN2CCN(C(C)=O)CC2)c1 (stereo not drawn) [Example 90, Tetrahydro-pyran-4-carboxylic acid (8-{5-[3-(4-acetyl-piperazin-1-ylmethyl)-phenylamino]-6-methoxy-pyridin-2-yl}-2,3-dihydro-benzo[1,4]dioxin-2-ylmethyl)-amide] | 140 |
